Reference: patent US20220127247A1, “N-(PYRIDIN-2-YL)PYRIDINE-SULFONAMIDE DERIVATIVES AND THEIR USE IN THE TREATMENT OF DISEASE” (NOVARTIS AG, priority 2019, published 2022)

Key:
[1] = target: T1, delF508-CFTR (Homo sapiens, UniProt P13569, DEL508-508); assay: delF508-CFTR functional activity in primary human bronchial epithelial cells (HBECs), Multi-Transepithelial Clamp Circuit (MTECC-24) assay; type: cell-based; conditions: for EC50: primary human delF508-CFTR bronchial epithelial cells, 24 h with compound, equivalent short circuit current (Ieq), forskolin plus potentiator, mean of at least two replicates, read-out: MTECC24-CFHBEC EC50; for MTECC24-CFHBEC Amax %: test compound added 24 h before assay, with potentiator (S)-3-amino-6-methoxy-N-(3,3,3-trifluoro-2-hydroxy-2-methylpropyl)-5-(trifluoromethyl)picolinamide, relative to 2 μM 3-(6-(1-(2,2-difluorobenzo[d][1,3]dioxol-5-yl)cyclopropane-1-carboxamido)-3-methylpyridin-2-yl)benzoic acid + 0.5 μM N-(2,4-di-tert-butyl-5-hydroxyphenyl)-4-oxo-1,4-dihydroquinoline-3-carboxamide
T1 construct: expressed in transfected cells
Method in brief: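 Patient-derived delF508 HBECs, air/liquid-interface differentiated ~4 weeks, were compound-treated 24 hrs, then short-circuit current (Ieq) recorded at ~36.5° C in HEPES pH7.4 medium with sequential benzamil, forskolin, potentiator and bumetanide. Normalized to 0.1% DMSO; EC50, fold change and % Amax from curve fits.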

[2] = target: T1, delF508-CFTR; assay: Measurement of delF508-CFTR-HRP surface expression in CFBE41o- cells; type: cell-based; conditions: for EC50: HRP-tagged delF508-CFTR in CFBE41o- cells, 24 h with compound, luminescence, 10-point curve, top 10 μM; for Emax: efficacy relative to reference compound 3-(6-(1-(2,2-difluorobenzo[d][1,3]dioxol-5-yl)cyclopropane-1-carboxamido)-3-methylpyridin-2-yl)benzoic acid, CFBE41o- cells, 24 h, read-out: DelF508-CFTR-HRP Amax %
Method in brief: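 CFBE41o- cells stably expressing delF508-CFTR with HRP in the fourth extracellular loop, induced with 500 ng/mL doxycycline for 48 h, then treated with compound (top 10 μM, 10-point 3-fold) for 24 h at 37° C. Surface HRP detected by luminescence with cell-impermeant substrate; EC50 from logistic fit of triplicates, normalized to lowest concentration.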

T1 sequence (P13569 with tags, fused parts or gaps DEL508-508): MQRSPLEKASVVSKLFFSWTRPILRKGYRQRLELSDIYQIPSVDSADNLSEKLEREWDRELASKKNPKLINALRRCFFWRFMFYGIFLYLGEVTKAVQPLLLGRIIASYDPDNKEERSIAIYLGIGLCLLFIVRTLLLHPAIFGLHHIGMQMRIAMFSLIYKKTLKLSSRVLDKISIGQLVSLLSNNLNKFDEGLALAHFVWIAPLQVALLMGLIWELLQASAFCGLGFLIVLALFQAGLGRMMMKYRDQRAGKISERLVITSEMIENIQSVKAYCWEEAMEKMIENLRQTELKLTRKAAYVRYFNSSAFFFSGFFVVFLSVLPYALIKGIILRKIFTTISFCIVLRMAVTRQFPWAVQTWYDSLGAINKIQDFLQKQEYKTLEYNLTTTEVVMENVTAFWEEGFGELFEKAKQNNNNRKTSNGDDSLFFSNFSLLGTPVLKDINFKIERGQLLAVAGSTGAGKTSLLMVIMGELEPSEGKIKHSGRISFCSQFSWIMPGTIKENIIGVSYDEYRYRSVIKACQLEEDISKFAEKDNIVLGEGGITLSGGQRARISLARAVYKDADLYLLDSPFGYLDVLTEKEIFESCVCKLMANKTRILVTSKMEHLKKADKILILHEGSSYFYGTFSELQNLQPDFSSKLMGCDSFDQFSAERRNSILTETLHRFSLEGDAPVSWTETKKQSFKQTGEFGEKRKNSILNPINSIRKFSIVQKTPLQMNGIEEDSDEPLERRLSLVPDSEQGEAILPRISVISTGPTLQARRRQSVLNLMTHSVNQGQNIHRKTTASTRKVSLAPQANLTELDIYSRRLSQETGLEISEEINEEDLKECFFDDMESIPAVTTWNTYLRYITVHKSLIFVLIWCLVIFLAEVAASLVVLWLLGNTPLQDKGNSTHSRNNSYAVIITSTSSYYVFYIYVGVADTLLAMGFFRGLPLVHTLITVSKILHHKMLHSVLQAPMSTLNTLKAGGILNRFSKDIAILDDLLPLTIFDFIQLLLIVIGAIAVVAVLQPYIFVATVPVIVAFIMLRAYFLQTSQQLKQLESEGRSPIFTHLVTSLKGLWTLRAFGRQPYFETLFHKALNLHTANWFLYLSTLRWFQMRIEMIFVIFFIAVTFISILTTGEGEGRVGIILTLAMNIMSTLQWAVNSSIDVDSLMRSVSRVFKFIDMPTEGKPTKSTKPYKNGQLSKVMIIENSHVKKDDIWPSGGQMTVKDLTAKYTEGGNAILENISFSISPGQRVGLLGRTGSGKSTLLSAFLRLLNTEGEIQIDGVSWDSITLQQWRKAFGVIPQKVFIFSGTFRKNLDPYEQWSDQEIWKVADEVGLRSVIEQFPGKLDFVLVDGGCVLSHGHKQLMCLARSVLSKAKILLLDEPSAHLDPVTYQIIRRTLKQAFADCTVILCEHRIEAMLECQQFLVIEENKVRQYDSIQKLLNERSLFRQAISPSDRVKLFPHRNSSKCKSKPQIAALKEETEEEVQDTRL

EC50 [1] [nM] | MTECC24-CFHBEC Amax % [1] [%] | EC50 [2] [nM] | Emax [2] [%] | SMILES
901 | 108 | 1920 | 547 | Cc1ccccc1-c1nc(NS(=O)(=O)c2cccc(N(C)CC3(C(=O)O)CCOCC3)n2)ccc1C(F)(F)F [Compound 133, 4-((methyl(6-(N-(6-(o-tolyl)-5-(trifluoromethyl)pyridin-2-yl)sulfamoyl)pyridin-2-yl)amino)methyl)tetrahydro-2H-pyran-4-carboxylic Acid]
114 | 189 | 1370 | – | Cc1ccccc1-c1nc(NS(=O)(=O)c2cccc(N(CCCC(=O)O)CCC(F)(F)F)n2)ccc1C(F)(F)F [Compound 134, 4-((6-(N-(6-(o-tolyl)-5-(trifluoromethyl)pyridin-2-yl)sulfamoyl)pyridin-2-yl)(3,3,3-trifluoropropyl)amino)butanoic Acid]
88 | 133 | 1490 | – | CCCN(CCC(=O)O)c1cccc(S(=O)(=O)Nc2ccc(C(F)(F)F)c(-c3cc(F)ccc3C)n2)n1 [Compound 149, 3-((6-(N-(6-(5-fluoro-2-methylphenyl)-5-(trifluoromethyl)pyridin-2-yl)sulfamoyl)pyridin-2-yl)(propyl)amino)propanoic Acid]
230 | 158 | 920 | 549 | CCCN(CCCC(=O)O)c1cccc(S(=O)(=O)Nc2ccc(Cl)c(-c3ccccc3C)n2)n1 [Compound 156, 4-((6-(N-(5-chloro-6-(o-tolyl)pyridin-2-yl)sulfamoyl)pyridin-2-yl)(propyl)amino)butanoic Acid]

Continued, molecule first:

SMILES | EC50 [1] [nM] | MTECC24-CFHBEC Amax % [1] [%] | EC50 [2] [nM] | Emax [2] [%]
CCCN(CCCC(=O)O)c1cccc(S(=O)(=O)Nc2ccc(C(F)(F)F)c(-c3ccccc3C)n2)n1 [Compound 132, 4-(propyl(6-(N-(6-(o-tolyl)-5-(trifluoromethyl)pyridin-2-yl)sulfamoyl)pyridin-2-yl)amino)butanoic Acid] | 95 | 232 | 1580 | –
Cc1ccc(F)cc1-c1nc(NS(=O)(=O)c2cccc(N(CCC(=O)O)C(C)C)n2)ccc1C(F)(F)F [Compound 135, 3-((6-(N-(6-(5-fluoro-2-methylphenyl)-5-(trifluoromethyl)pyridin-2-yl)sulfamoyl)pyridin-2-yl)(isopropyl)amino)propanoic Acid] | 65 | 292 | 1570 | –
CCCN(CCC(=O)O)c1cccc(S(=O)(=O)Nc2ccc(C(F)(F)F)c(-c3ccccc3C)n2)n1 [Compound 148, 3-(propyl(6-(N-(6-(o-tolyl)-5-(trifluoromethyl)pyridin-2-yl)sulfamoyl)pyridin-2-yl)amino)propanoic Acid] | 179 | 247 | 1450 | –
CCCN(CCCC(=O)O)c1cccc(S(=O)(=O)Nc2ccc(Cl)c(-c3c(C)cccc3C)n2)n1 [Compound 157, 4-((6-(N-(5-chloro-6-(2,6-dimethylphenyl)pyridin-2-yl)sulfamoyl)pyridin-2-yl)(propyl)amino)butanoic Acid] | 586 | 59 | 770 | 589
